The source of these data is ChEMBL document CHEMBL1142550, “Thiopyrano[2,3-e]indol-2-ones: angelicin heteroanalogues with potent photoantiproliferative activity” (Bioorg Med Chem, 2008).

What all share (format): functional, cell-based
The test system of experiment [1] is Jurkat. The experiment is described as follows: Photocytotoxicity against human JURKAT cells treated 30 mins before 2.5 J/cm'2 UVA irradiation measured after 72 hrs by MTT assay. Particulars: light or radiation study.
Experiment [2] is described as follows: Photocytotoxicity against human NCTC 2544 cells treated 30 mins before 2.5 J/cm'2 UVA irradiation measured after 72 hrs by MTT assay. Particulars: NCTC-2544, light or radiation study. On the technique in general: Tetrazolium dyes change colour on reduction, which living cells bring about.
The nature of experiment [3]: Photocytotoxicity against human NCTC 2544 cells treated 30 mins before 3.75 J/cm'2 UVA irradiation measured after 72 hrs by MTT assay. Particulars: NCTC-2544, light or radiation study.
In experiment [4] the test system is HT-1080. The experiment can be described thus: Photocytotoxicity against human HT1080 cells treated 30 mins before 3.75 J/cm'2 UVA irradiation measured after 72 hrs by MTT assay. To be noted: HT-1080, light or radiation study.
For experiment [5], the system named is HT-1080. The experiment can be described thus: Photocytotoxicity against human HT1080 cells treated 30 mins before 2.5 J/cm'2 UVA irradiation measured after 72 hrs by MTT assay. Particulars: HT-1080, light or radiation study.
In experiment [6] the test system is LoVo. The experiment is described as follows: Photocytotoxicity against human LoVo cells treated 30 mins before 3.75 J/cm'2 UVA irradiation measured after 72 hrs by MTT assay. Particulars: light or radiation study.
In experiment [7] the test system is LoVo. The experiment can be described thus: Photocytotoxicity against human LoVo cells treated 30 mins before 2.5 J/cm'2 UVA irradiation measured after 72 hrs by MTT assay. To be noted: light or radiation study.
Experiment [8] deals with Jurkat. The experiment can be described thus: Photocytotoxicity against human JURKAT cells treated 30 mins before 3.75 J/cm'2 UVA irradiation measured after 72 hrs by MTT assay. To be noted: light or radiation study.
Experiment [9] deals with HL-60. The experiment is described as follows: Photocytotoxicity against human HL-60 cells treated 30 mins before 3.75 J/cm'2 UVA irradiation measured after 72 hrs by MTT assay. Particulars: HL-60, light or radiation study.
Experiment [10] has as its system HL-60. The experiment is described as follows: Photocytotoxicity against human HL-60 cells treated 30 mins before 2.5 J/cm'2 UVA irradiation measured after 72 hrs by MTT assay. To be noted: HL-60, light or radiation study.

Molecules are shown by their SMILES.

For orientation: IC50 means the concentration that inhibits the measured activity by half. High values mean a need for much substance, low ones inhibition by little substance.

On to `O=c1ccc2ccc3occc3c2o1` [ANGELICIN], for which the half-inhibitory concentration (IC50) with Jurkat [1] was determined as 0.9 µM; in experiment [2], 4.2 µM; in [3], 1.5 µM.

Regarding `COc1c2occc2cc2ccc(=O)oc12` [METHOXSALEN], the IC50 was found to be 1.2 µM in the experiment with Jurkat [1], 5.5 µM in [2], 1.9 µM in the experiment with HT-1080 [4] and 0.9 µM in experiment [3].

For the compound `Cc1cc2c(n1C)CCc1ccc(=O)sc1-2`, the concentration for half-maximal inhibition (IC50) in the experiment on HT-1080 [5] is over 20 µM; with LoVo [6], over 20 µM; in the experiment on Jurkat [1], over 10 µM; in experiment [2] it was over 20 µM; in the experiment on LoVo [7], over 20 µM; in the experiment with HT-1080 [4], over 20 µM. For the same compound, the IC50 in experiment [3] was over 20 µM; with Jurkat [8] it was over 10 µM; in the experiment with HL-60 [9], over 10 µM; with HL-60 [10] it was over 10 µM.

As to `Cc1cc2c3sc(=O)ccc3ccc2n1-c1ccccc1`, the half-maximal inhibitory concentration (IC50) in the experiment on HT-1080 [5] was 5.4 µM; in the experiment with LoVo [6], 4.2 µM; in the experiment with Jurkat [1], 2.5 µM; in experiment [2], 17 µM; in the experiment on LoVo [7], 5.1 µM; with HT-1080 [4], 2 µM. Also, the IC50 was 14.8 µM in [3], 3.5 µM in the experiment on Jurkat [8], 1.3 µM in the experiment with HL-60 [9] and 2.6 µM in the experiment with HL-60 [10].
